Article PMC11350868, “A Novel Bacitracin-like Peptide from Mangrove-Isolated Bacillus paralicheniformis NNS4-3 against MRSA and Its Genomic Insights” (Antibiotics, 2024)
Values after ≈ are worked out from the molar mass of the structure shown. Values joined by “and” are separate entries in the source; they are usually repeats but may differ in a detail not shown here. Identical values can stand only once. Like-named read-outs stand apart in the source and are kept apart here.

Assays:
[1] = system: MRSA strain 1096; assay: microbe, parasite or virus in culture; format: cell-based, Staphylococcus aureus; conditions: strain 1096, 24 h
Experimental: (§1) The MIC and MBC of the purified peptide of NNS4-3 were determined against various strains of S. aureus. The broth microdilution method followed the guidance provided by the Clinical and Laboratory Standards Institute (CLSI). Pathogenic bacteria, such as S. aureus TISTR 517 and MRSA strains 142, 1096, and 2468, were used as test strains and cultured on MH agar at 37 °C for 18 h. A single colony of each tested bacterium was suspended in 0.85% NaCl until its turbidity reached an OD of 0.1 at 625 nm (1 × 10^8 CFU/mL). The bacterial cells were diluted to 5 × 10^6 CFU/mL using cation-adjusted Mueller Hinton broth (CAMHB). The diluted cell suspension (10 µL) was transferred to each well of a 96-well plate. With a total volume of 100 µL in each well, the purified AMP was added to each well to obtain final concentrations between 0.125 and 64 µg/mL. Standard antibiotics (vancomycin and cefoxitin) and antibiotic-free samples were used as positive and negative controls, respectively. The 96-well plate was incubated at 37 °C for 24 h. The experiment was carried out in triplicate for each strain. […] Subsequently, 100 µL of each dilution was spread on MH agar and then incubated at 37 °C for 24 h. The MBC was identified as the lowest concentration at which no bacterial colony growth was observed on the plate.

[2] = system: MRSA strain 142; assay: microbe, parasite or virus in culture; format: cell-based, Staphylococcus aureus; conditions: strain 142, 24 h
Experimental: as §1

[3] = system: MRSA strain 2468; assay: microbe, parasite or virus in culture; format: cell-based, Staphylococcus aureus; conditions: strain 2468, 24 h
Experimental: as §1

[4] = system: S. aureus TISTR 517; assay: microbe, parasite or virus in culture; format: cell-based, Staphylococcus aureus; conditions: TISTR 517, 24 h
Experimental: as §1

[5] = system: MRSA strain 2468; assay: SEM of treated cells (morphological changes); format: cell-based, Staphylococcus aureus; conditions: 1× MIC, 18 h incubation, 20,000× magnification
Experimental: (§2) The treatment effect of NNS4-3 AMP on tested bacterial cells was investigated by observing morphological changes under SEM. S. aureus TISTR 517 and MRSA strain 2468 were precultured in MH broth for 18 h before being centrifuged to harvest the cell pellet. Cell pellets of both strains were washed with 0.85% sterile NaCl solution 3 times to remove exopolysaccharide. The washed cells were then dispersed in CAMHB to adjust cell turbidity to 0.1 OD at 625 nm. The prepared cells were diluted to 5 × 10^5 CFU/mL with CAMHB before being treated with NNS4-3 AMP. […] The sample for SEM micrography was prepared by fixing the bacterial sample in 2.5% glutaraldehyde in 0.1 M phosphate buffer pH 7.2 for 24 h before ethanol dehydration of the sample. The complete ethanol removal from the prepared sample was conducted by a critical point drying machine (Quorum Technologies Ltd., Lewes, East Sussex, UK).

[6] = system: S. aureus TISTR 517; assay: SEM of treated cells (morphological changes); format: cell-based, Staphylococcus aureus; conditions: 1× MIC, 18 h incubation, 20,000× magnification
Experimental: as §2

[7] = Thermal stability (residual antibacterial activity); format: physicochemical; conditions: AMP 10 µg/mL in purified water, agar well diffusion vs MRSA strain 2468, relative to non-treated sample, mean ± SD, triplicate
Experimental: (§3) The AMP was dissolved in sterile purified water and adjusted to a final concentration of 10 µg/mL. The sensitivity of the AMP to temperatures of 60, 80, and 100 °C as well as autoclaving at 121 °C for 15 and 30 min was evaluated. The sensitivity of the AMP to proteolytic enzymes with different digesting characteristics was studied by incubating with a concentration of 1 mg/mL of proteinase K, trypsin, and α-chymotrypsin (Sigma-Aldrich, Warren, MI, USA). Surfactant compatibility of the AMP was examined by exposing the sample to 1% SDS and 1% Triton X-100 (AppliChem GmbH, Darmstadt, Germany). The propensity of the AMP for acid and base hydrolysis was examined by adjusting the pH of the solution to 1.2, 4.5, 6.8, and 7.4. After incubation, the pH of the AMP solution was neutralized to 7.4 before being assessed for antimicrobial activity. Following all treatments, the antibacterial assay using agar well diffusion against the MRSA strain 2468 was conducted in triplicate. The stability profiles are presented as the percentage of the activity relative to the untreated conditions (mean ± SD) and statistical significance was determined by the Student’s t-test at a p-value < 0.05.

[8] = biological target: T1, Proteinase K (Parengyodontium album, UniProt P06873); assay: Proteolytic enzyme stability (residual antibacterial activity); format: in vitro ADME; conditions: Proteinase K 1 mg/mL, AMP 10 µg/mL, agar well diffusion vs MRSA strain 2468, relative to non-treated sample, mean ± SD, triplicate
T1 construct: purchased Sigma-Aldrich
Experimental: as §3

[9] = Surfactant stability (residual antibacterial activity); format: physicochemical; conditions: AMP 10 µg/mL, agar well diffusion vs MRSA strain 2468, relative to non-treated sample, mean ± SD, triplicate
Experimental: as §3

[10] = Effect of pH on the stability (residual antibacterial activity); format: physicochemical; conditions: AMP 10 µg/mL, mean ± SD, triplicate
Experimental: as §3

[11] = system: Trypsin; conditions: Trypsin 1 mg/mL, AMP 10 µg/mL, agar well diffusion vs MRSA strain 2468, relative to non-treated sample, mean ± SD, triplicate
Experimental: as §3

[12] = biological target: α-chymotrypsin (Bos taurus, UniProt P00766); conditions: α-chymotrypsin 1 mg/mL, AMP 10 µg/mL, agar well diffusion vs MRSA strain 2468, relative to non-treated sample, mean ± SD, triplicate
Experimental: as §3

T1 sequence (P06873 106-384): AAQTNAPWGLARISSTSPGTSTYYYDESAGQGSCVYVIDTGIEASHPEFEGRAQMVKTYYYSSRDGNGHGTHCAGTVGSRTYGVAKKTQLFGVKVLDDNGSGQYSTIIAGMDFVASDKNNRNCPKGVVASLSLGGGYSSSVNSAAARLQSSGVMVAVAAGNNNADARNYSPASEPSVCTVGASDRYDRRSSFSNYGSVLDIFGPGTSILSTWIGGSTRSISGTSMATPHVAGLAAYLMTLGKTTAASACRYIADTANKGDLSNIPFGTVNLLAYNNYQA

Structure (SMILES): CC(C)CC(NC(=O)C(N)CCCCN)C(=O)NC(CC(C)C)C(=O)NC(CCCCN)C(=O)NC(CC(=O)O)C(=O)NC(CC(C)C)C(=O)NC(Cc1ccccc1)C(=O)NC(Cc1c[nH]cn1)C(=O)NC(CC(=O)O)C(=O)NC(CC(N)=O)C(=O)O (single isomer, unassigned) [NNS4-3 AMP]
- MBC [1]: 4 µg/mL (≈ 3.22 µM)
- MIC [1]: 1 µg/mL (≈ 0.805 µM)
- MBC [2]: 4 µg/mL (≈ 3.22 µM)
- MIC [2]: 1 µg/mL (≈ 0.805 µM)
- MBC [3]: 4 µg/mL (≈ 3.22 µM)
- MIC [3]: 1 µg/mL (≈ 0.805 µM)
- MBC [4]: 64 µg/mL (≈ 51.5 µM)
- MIC [4]: 16 µg/mL (≈ 12.9 µM)
- morphological changes under SEM [5]: membrane disruption and pore formation
- morphological changes under SEM [6]: cellular lysis
- % Residual Activity ([7]; 37 °C, 1 h): 103.19 ± 3.68%
- % Residual Activity ([7]; 37 °C, 6 h): 100.00 ± 0.00%
- % Residual Activity ([7]; 37 °C, 12 h): 99.61 ± 6.44%
- % Residual Activity ([7]; 60 °C, 1 h): 101.82 ± 2.46%
- % Residual Activity ([7]; 60 °C, 6 h): 95.27 ± 4.31%
- % Residual Activity ([7]; 60 °C, 12 h): 90.47 ± 2.98 %
- % Residual Activity ([7]; 80 °C, 1 h): 97.52 ± 6.21%
- % Residual Activity ([7]; 80 °C, 6 h): 41.13 ± 35.62 %
- % Residual Activity ([7]; 100 °C, 1 h): 73.05 ± 1.57 %
- % Residual Activity ([7]; 100 °C, 6 h): 0.00 ± 0.00 %
- % Residual Activity ([7]; 100 °C, 12 h): 0.00 ± 0.00 %
- % Residual Activity ([7]; autoclaving 121 °C, 15 psi, 15 min): 61% and 61.83 ± 0.74 %
- % Residual Activity ([7]; autoclaving 121 °C, 15 psi, 30 min): 0.00 ± 0.00 %
- % Residual Activity ([8]; 1 h): 98.66 ± 1.68%
- % Residual Activity ([8]; 6 h): 99.19 ± 1.07%
- % Residual Activity ([8]; 12 h): 99.07 ± 3.08%
- % Residual Activity ([9]; 1% SDS, 1 h): 87.00 ± 6.17 %
- % Residual Activity ([9]; 1% SDS, 6 h): 86.69 ± 5.39 %
- % Residual Activity ([9]; 1% SDS, 12 h): 86.25 ± 4.76 %
- % Residual Activity ([9]; 1% Triton X-100, 1 h): 104.54 ± 4.96%
- % Residual Activity ([9]; 1% Triton X-100, 12 h): 103.40 ± 3.82%
- % Residual Activity ([10]; pH 1.2, 1 h, neutralized to pH 7.4 before agar well diffusion vs MRSA strain 2468, relative to non-treated sample): 98.12 ± 2.14%
- % Residual Activity ([10]; pH 1.2, 6 h, neutralized to pH 7.4 before agar well diffusion vs MRSA strain 2468, relative to non-treated sample): 95.45 ± 0.79%
- % Residual Activity ([10]; pH 1.2, 12 h, neutralized to pH 7.4 before agar well diffusion vs MRSA strain 2468, relative to non-treated sample): 94.14 ± 3.12%
- % Residual Activity ([10]; pH 4.5, 1 h, neutralized to pH 7.4 before agar well diffusion vs MRSA strain 2468, relative to non-treated sample): 95.24 ± 3.29%
- % Residual Activity ([10]; pH 4.5, 6 h, neutralized to pH 7.4 before agar well diffusion vs MRSA strain 2468, relative to non-treated sample): 99.64 ± 2.87%
- % Residual Activity ([10]; pH 4.5, 12 h, neutralized to pH 7.4 before agar well diffusion vs MRSA strain 2468, relative to non-treated sample): 96.91 ± 2.99%
- % Residual Activity ([10]; pH 6.8, 1 h, neutralized to pH 7.4 before agar well diffusion vs MRSA strain 2468, relative to non-treated sample): 98.87 ± 2.00%
- % Residual Activity ([10]; pH 6.8, 6 h, neutralized to pH 7.4 before agar well diffusion vs MRSA strain 2468, relative to non-treated sample): 95.89 ± 5.00%
- % Residual Activity ([10]; pH 6.8, 12 h, neutralized to pH 7.4 before agar well diffusion vs MRSA strain 2468, relative to non-treated sample): 92.54 ± 4.14%
- % Residual Activity ([10]; pH 7.4, 1 h, agar well diffusion vs MRSA strain 2468, relative to non-treated sample): 97.80 ± 1.32%
- % Residual Activity ([10]; pH 7.4, 6 h, agar well diffusion vs MRSA strain 2468, relative to non-treated sample): 94.82 ± 2.80%
- % Residual Activity ([10]; pH 7.4, 12 h, agar well diffusion vs MRSA strain 2468, relative to non-treated sample): 93.29 ± 1.89%
- % Residual Activity ([11]; 1 h): 95.57 ± 4.01%
- % Residual Activity ([11]; 6 h): 95.66 ± 2.62%
- % Residual Activity ([11]; 12 h): 93.81 ± 3.31%
- % Residual Activity ([12]; 1 h): 96.65 ± 2.14%
- % Residual Activity ([12]; 6 h): 95.15 ± 6.64%
- % Residual Activity ([12]; 12 h): 97.06 ± 0.54%
